In one assay the target is astacin (Astacus astacus, UniProt P07584). As to conditions: cited from earlier work.
The subject of the next assay is D. immitis larvae (L3). The assay can be described thus: Effect of protease inhibitors on D. immitis larval molting in culture. As to conditions: for % reduction (of molt versus control): 72 hours; for % molt: L3 in NI medium, evaluated at 72 hours, control 82.6; for Observed movement and condition of treated larvae compared to controls: observed daily throughout the study; for Effect on ability of larvae to molt (in words): treatment of L3, ANOVA overall P=0.0001. It counts as cell-based, Dirofilaria immitis.

In assay [1] the test system is ES proteins displaying metalloprotease activity (about 60 kD, about 95 kD, at least about 200 kD). As to conditions: 2 mM EDTA in reaction buffer, about 37° C., 66 hours.

“Also recorded” adds a separate entry of the source.

astacin, sequence (P07584 50-249 limits assumed): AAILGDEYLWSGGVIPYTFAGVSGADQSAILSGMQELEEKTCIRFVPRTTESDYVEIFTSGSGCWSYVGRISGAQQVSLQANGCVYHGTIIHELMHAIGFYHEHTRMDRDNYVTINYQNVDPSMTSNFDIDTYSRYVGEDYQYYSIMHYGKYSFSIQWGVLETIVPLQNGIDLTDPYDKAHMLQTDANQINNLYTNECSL

On to `c1cnc2c(c1)ccc1cccnc12` [1,10-phenanthroline], for which, at astacin, the “Inhibition of astacin activity” value is on record as “inhibited”.

Regarding `CC(C)C[C@H](NC(=O)[C@@H](O)[C@H](N)Cc1ccccc1)C(=O)O` [Bestatin], in the assay with D. immitis larvae (L3) (1.0 mM inhibitor), the “% reduction (of molt versus control)” value was 27.3% and the “% molt” value came out at 60.0%. In the assay with D. immitis larvae (L3) (2.5 mM inhibitor), the “% reduction (of molt versus control)” value is given as 57.9% and the “% molt” value was determined as 34.8%. In addition, in the assay on D. immitis larvae (L3) (5.0 mM inhibitor), the “% reduction (of molt versus control)” value was found to be 94.1% and the “% molt” value amounted to 4.9%. Also, in the assay on D. immitis larvae (L3), the “Observed movement and condition of treated larvae compared to controls” value is “moved much more slowly”; the “Effect on ability of larvae to molt (in words)” value was “significantly reduces the ability of the larvae to molt”.

Regarding `O=C(O)CN(CCN(CC(=O)O)CC(=O)O)CC(=O)O` [EDTA, ethylene diamine tetraacetic acid], in assay [1], the “Inhibition of ES metalloprotease (collagenase) activity” value is “completely inhibited”. Besides, the “Inhibition of astacin activity” value on astacin is reported as “inhibited”.

As for `CC(C)C[C@H](NP(=O)(O)O[C@@H]1O[C@@H](C)[C@H](O)[C@@H](O)[C@H]1O)C(=O)N[C@@H](Cc1c[nH]c2ccccc12)C(=O)O` [Phosphoramidon], the “% reduction (of molt versus control)” value with D. immitis larvae (L3) (1.0 mM inhibitor) is recorded as 48.4%; in the assay with D. immitis larvae (L3) (2.5 mM inhibitor) it was 85.1%; in the assay on D. immitis larvae (L3) (5.0 mM inhibitor), 100.0%. The results for the “% molt” value in the assay on D. immitis larvae (L3) (1.0 mM inhibitor), with D. immitis larvae (L3) (2.5 mM inhibitor) and with D. immitis larvae (L3) (5.0 mM inhibitor) were 42.6%, 12.3% and 0.0%, respectively. For the same compound, the “Observed movement and condition of treated larvae compared to controls” value with D. immitis larvae (L3) is on record as “very active; also recorded: in poor shape by the end of the study”. Moreover, in the assay on D. immitis larvae (L3), the “Effect on ability of larvae to molt (in words)” value is “significantly reduces the ability of the larvae to molt”.

On to “TIMP1: Tissue inhibitor of metalloproteinases, protein inhibitor of zinc endopeptidases”, for which the “Inhibition of astacin activity” value with astacin was “do not demonstrate inhibitory activity”.
